The values that follow come from US20160128999A1 (AB SCIENCE, priority 2014, published 2016).

The test system of one series is Hepatoma cell line HepG2. Briefly: CellTiter-Blue cell proliferation and viability assay, HepG2. The following applies: Homo sapiens; HepG2, 1% FCS, 72 hours; read-out: IC50 of agent as single agent. It counts as cell-based. Here is the method: (§1) During proliferation assays, all cells were grown in medium containing 1% FCS. […] Treatment was started by the addition of 50 μl of a 2× concentrated drug solution to a final volume of 100 μl. […] After incubating for 72 hours at 37° C., 10 μl of a 1⁄2 dilution of CellTiter-Blue reagent was added to each well and the plates were returned to the incubator for an additional 4 hours. The fluorescence intensity from the CellTiter-Blue reagent is proportional to the number of viable cells and data were recorded (544Ex/590Em) using a POLARstar OMEGA microplate reader (BMG Labteck Sarl). A background control without cells was used as a blank. The positive control of the assay corresponds to the cell proliferation obtained in the absence of drug treatment (100% proliferation). Each sample was done in duplicate, the […] values were transferred to an excel file, the average and standard deviation of the duplicates were calculated and expressed as a percentage of the proliferation obtained in absence of treatment. The results presented are representative of a minimum of 3 experiments.

The conditions of series [1]: clinically achievable concentration; read-out: Approximate Cmax measured in plasma; cited from earlier work.
In series [2] the test system is Hepatoma cell line PLC-PRF5. Briefly: CellTiter-Blue cell proliferation and viability assay, PLC-PRF5. In kind it is cell-based. The following applies: Homo sapiens, PLC-PRF-5; PLC-PRF5, 1% FCS, 72 hours; read-out: IC50 of agent as single agent. Here is the method: as §1
The subject of series [3] is advanced Hepatocellular carcinoma (BCLC stage C). As to conditions: BCLC C patients, first line sorafenib; cited from earlier work.

Take `CCc1c2c(nc3ccc(OC(=O)N4CCC(N5CCCCC5)CC4)cc13)-c1cc3c(c(=O)n1C2)COC(=O)[C@]3(O)CC` [CPT-11]: the IC50 (in the series on Hepatoma cell line HepG2; in series [2]) was 100 µM in each case. Further, the Cmax in series [1] is 1 to 10 µM.

Consider `COc1cccc2c1C(=O)c1c(O)c3c(c(O)c1C2=O)C[C@@](O)(C(=O)CO)C[C@@H]3O[C@H]1C[C@H](N)[C@H](O)[C@H](C)O1` [DOX], for which the IC50 with Hepatoma cell line HepG2 came out at 5 µM.

As to `Nc1ccn([C@@H]2O[C@H](CO)[C@@H](O)C2(F)F)c(=O)n1` [GCB, 2′,2′,-dofluoro-2′,-deoxycytidine], in the series on Hepatoma cell line HepG2, the IC50 is greater than 100 µM.

As for `CC[C@]1(O)C[C@H]2CN(CCc3c([nH]c4ccccc34)[C@@](C(=O)OC)(c3cc4c(cc3OC)N(C=O)[C@H]3[C@@](O)(C(=O)OC)[C@H](OC(C)=O)[C@]5(CC)C=CCN6CC[C@]43[C@@H]65)C2)C1` [VINC], the IC50 (in the series on Hepatoma cell line HepG2; in series [2]) was 0.1 to 1 µM each time.

As to `COc1cc([C@@H]2c3cc4c(cc3[C@@H](O[C@@H]3O[C@@H]5CO[C@@H](C)O[C@H]5[C@H](O)[C@H]3O)[C@H]3COC(=O)[C@H]23)OCO4)cc(OC)c1O` [VP-16], the IC50 with Hepatoma cell line HepG2 is greater than 100 µM; in series [2], 50 µM. In series [1], the Cmax was roughly 34 µM.

Turning to `Cc1ccc(NC(=O)c2ccc(CN3CCN(C)CC3)cc2)cc1Nc1nc(-c2cccnc2)cs1` [masitinib mesilate], the IC50 (with Hepatoma cell line HepG2; in series [2]) was greater than 5 µM throughout.

`CNC(=O)c1cc(Oc2ccc(NC(=O)Nc3ccc(Cl)c(C(F)(F)F)c3)cc2)ccn1` [sorafenib]: in series [3], the “median OS” value is listed as 9.5 months.
